In US8759304B2, “Compositions and methods for increasing telomerase activity” (Telomerase Activation Science, Inc., priority 2003, dated 2014):

Key:
[1] = tested on: telomerase activity in HEKneoP cells (neonatal keratinocytes); assay: TRAP assay of telomerase activity in HEKneoP cells (neonatal keratinocytes); type: cell-based, human; conditions: for MEC (minimum effective concentration producing telomerase activity twice that of DMSO control): 100% greater than DMSO control
[2] = tested on: aging adult keratinocytes; assay: Scratch assay (wound healing activity), aging adult keratinocytes; type: cell-based; conditions: FIG. 4; for Approx. wound width Day1 test: 0.1 μg/ml (about 0.13 μM) 1
Protocol: (§1) The compounds of formula I-III can be used to promote healing of wounds, burns, abrasions or other acute or chronic conditions of the epidermis, as discussed further below. As used herein, “wound healing activity as measured in a scratch assay” refers to the activity as measured in keratinocytes or fibroblasts according to the following protocol, and expressed as the value of WH shown in the formula below.
(§2) Cells are plated in flasks (5×10^5 cells per flask) and cultured for two days in a humidified chamber at 5% CO2, 37° C. To create the “wound”, a 2 ml plastic pipette is gently dragged to “scratch” the cell surface. The ideal wound is approximately 2-3 mm wide and 50 mm long (along the long axis of the tissue culture flask). The cells are retreated with medium containing either vehicle (DMSO; control sample) or test compositions at multiple concentrations. A wound area is identified, the flask marked, and the appearance of the cells documented photographically over 3-4 days continued culturing of the cells.
(§3) Amount of wound closure is determined by measuring the width of the wound over time for compound-treated samples relative to vehicle-treated or other control cells. Measurements are made from the photographs taken for each of the samples on days 1 (immediately after scratching), 2, 3, and 4. Percentage of wound healing (also expressed as “wound healing activity”) is calculated by the following formula: WH=100−[100×Wn/W0], where Wn is the width of the wound on day n and W0 is the width of the wound on day one (i.e. immediately after scratching).
(§4) Wound healing activity of invention compounds 1 (astragaloside IV) and 2 (cycloastragenol) was evaluated in aging keratinocytes, via a scratch assay as described above.
(GRN163 is a telomerase inhibitor oligonucleotide that targets the template region of the telomerase RNA component. Specifically, GRN 163 is a 13-mer N3′→P5′ thiophosphoramidate oligonucleotide, described in detail in PCT Pubn. No. WO 01/18015. GRN137227 is a 13-mer N3′→P5′ thiophosphoramidate control oligonucleotide having a mismatched sequence.)

[3] = tested on: young neonatal keratinocytes; assay: Scratch assay (wound healing activity), young neonatal keratinocytes; type: cell-based; conditions: FIG. 5, 1 at 0.1 μg/ml, 2 at 0.01 μM; for WHtest (wound healing activity): WH=100−[100×Wn/W0], WHcntrl 52.6
Protocol: as §1, §2, §3, §4

[4] = tested on: aging neonatal keratinocytes; assay: Scratch assay (wound closure), aging neonatal keratinocytes; type: cell-based; conditions: FIG. 7; compared with 50 ng/mL PDGF
Protocol: as §1
Cells are plated in flasks (5×10^5 cells per flask) and cultured for two days in a humidified chamber at 5% CO2, 37° C. To create the “wound”, a 2 ml plastic pipette is gently dragged to “scratch” the cell surface. The ideal wound is approximately 2-3 mm wide and 50 mm long (along the long axis of the tissue culture flask). The cells are retreated with medium containing either vehicle (DMSO; control sample) or test compositions at multiple concentrations. […]
Amount of wound closure is determined by measuring the width of the wound over time for compound-treated samples relative to vehicle-treated or other control cells. […] Percentage of wound healing (also expressed as “wound healing activity”) is calculated by the following formula: WH=100−[100×Wn/W0], where Wn is the width of the wound on day n and W0 is the width of the wound on day one (i.e. immediately after scratching). […]

[5] = tested on: Salmonella Typhimurium tester strains TA98, TA100, TA1535, TA 1537 and E. coli tester strain WP2 uvrA; assay: Ames test (reverse bacterial mutation); conditions: levels up to 5000 μg/plate
Protocol: (§5) Studies in support of the invention indicate that the compounds of formula I-III have excellent bioavailability and low toxicity. For example, a representative compound, cycloastragenol (2), was negative for reverse bacterial mutation potential in the Ames test, employing Salmonella Typhimurium tester strains TA98, TA100, TA1535, TA 1537 and E. coli tester strain WP2 uvrA, at levels up to 5000 μg/plate. It was well-tolerated systemically in Sprague-Dawley rats, after single intravenous injections up to 10 mg/kg.

Sprague-Dawley rats = assay: Systemic tolerance after single intravenous injection in rats; type: in vivo; conditions: single intravenous injections up to 10 mg/kg
Protocol: as §5

[6] = day 1 immediately after scratching

Question: What does the source list for `CC(C)(O)[C@@H]1CC[C@](C)([C@H]2[C@@H](O)C[C@@]3(C)[C@@H]4C[C@H](O[C@@H]5O[C@H](CO)[C@@H](O)[C@H](O)[C@H]5O)[C@H]5C(C)(C)[C@@H](O[C@@H]6OC[C@@H](O)[C@H](O)[C@H]6O)CC[C@@]56C[C@@]46CC[C@]23C)O1` [Compound 1, astragaloside IV]?
Answer: MEC (minimum effective concentration producing telomerase activity twice that of DMSO control) [1]: 0.01 µM; telomerase activity ([1]; at 1.0 μM in DMSO, maximum, decreased at higher concentration up to 10 μM): about 360 % of control; WHtest (wound healing activity) ([2]; 0.1 μg/ml 1, WH=100−[100×Wn/W0], WHcntrl 54.5): 100; Approx. wound width Day1 test [2]: 0 arbitrary units; Approx. wound width Day1 test [2, 6]: 17 arbitrary units; state of scratch wound in treated cells ([2]; 0.1 μg/ml (about 0.13 μM) 1 in DMSO, control still had sizable wound at day 4): confluent at day 4; Approx. wound width Day1 test [3]: 0 arbitrary units; WHtest (wound healing activity) [3]: 100; Approx. wound width Day1 test [3, 6]: 18 arbitrary units; wound closure as percent of control, effectiveness [4]: comparable to that of PDGF

Question: Which results are given for `CC(C)(O)[C@@H]1CC[C@](C)([C@H]2[C@@H](O)C[C@@]3(C)[C@@H]4C[C@H](O)[C@H]5C(C)(C)[C@@H](O)CC[C@@]56C[C@@]46CC[C@]23C)O1` [Compound 2, cycloastragenol]?
Answer: MEC (minimum effective concentration producing telomerase activity twice that of DMSO control) [1]: 0.01 µM; telomerase activity ([1]; at 0.1 μM in DMSO, maximum, decreased with further increases in concentration): about 300 % of control; Approx. wound width Day1 test [3]: 2 arbitrary units; WHtest (wound healing activity) [3]: 90.5; Approx. wound width Day1 test [3, 6]: 21 arbitrary units; reverse bacterial mutation potential [5]: negative; changes in behavior (eating, drinking), gross weight, organ weights, hematology or clinical chemistry (Sprague-Dawley rats; males or females): No significant dose-dependent changes; systemic tolerance (Sprague-Dawley rats): well-tolerated

Question: For `CC(C)(O)[C@@H]1CC[C@](C)([C@H]2[C@@H](O)C[C@@]3(C)[C@@H]4C[C@H](O)[C@H]5C(C)(C)[C@@H](O)CC[C@]5(C)C4=CC[C@]23C)O1` [Compound 3, astragenol], which “MEC (minimum effective concentration producing telomerase activity twice that of DMSO control)” value (“MEC” below) [1] is on record?
Answer: Its value is 0.03 µM.

Question: With `CC1(C)C2=CC[C@@H]3[C@@](C)(CC[C@]4(C)[C@@H]([C@@]5(C)CC[C@@H](C(C)(C)O)O5)[C@@H](O)C[C@@]34C)C2=CCC1O` (stereo partly drawn) [Compound 5, 20R,24S-epoxy-3β,16β,25-trihydroxy-9β-methyl-19-norlanost-1,5-diene] as the molecule, how does the “MEC” value [1] read?
Answer: Its value is 0.10 µM.

Question: Which “MEC” value [1] does the source give for `CC(C)=CCC[C@](C)(O)[C@H]1CC[C@]2(C)[C@@H]1[C@H](O)C[C@@H]1[C@@]3(C)CC[C@H](O)C(C)(C)[C@@H]3[C@@H](O[C@@H]3O[C@H](CO)[C@@H](O)[C@H](O)[C@H]3O)C[C@]12C` [Compound 8, ginsenoside RH1] here?
Answer: Its value is 10 µM.

Question: How did the “MEC” value [1] turn out when `CC(C)(O)[C@@H]1CC[C@](C)([C@H]2[C@@H](O)C[C@@]3(C)[C@@H]4C[C@H](O)[C@H]5C(C)(C)C(O[C@@H]6OC[C@@H](O)[C@H](O)[C@H]6O)CCC56C[C@@]46CC[C@]23C)O1` (stereo partly drawn) [Compound 7, cycloastragenol 3-β-D-xylopyranoside] was run?
Answer: The value was 3.2 µM.

Question: For astragaloside IV 16-one [Compound 4], which “MEC” value [1] is on record?
Answer: The value was 0.03 µM.

Question: EGF: epidermal growth factor was tested. Which telomerase activity ([1]; cells treated with 10 nM EGF) did it give?
Answer: Its telomerase activity is “about 200%”.

Question: With `CC(C)(O)[C@@H]1CC[C@](C)([C@H]2[C@@H](O)C[C@@]3(C)[C@@H]4C[C@H](OC5O[C@H](CO)[C@@H](O)[C@H](O)[C@H]5O)[C@H]5C(C)(C)C(O)CCC56C[C@@]46CC[C@]23C)O1` (stereo partly drawn) [Compound 6, cycloastragenol 6-β-D-glucopyranoside] as the molecule, how does the “MEC” value [1] read?
Answer: Its value is 3.2 µM.
